# Results published in ChEMBL document CHEMBL4118122, “Identification and biological evaluation of thiazole-based inverse agonists of RORγt” (Bioorg Med Chem Lett, 2018).
# Key:
# [1] = molecular target: T1, Nuclear receptor ROR-beta (Homo sapiens, UniProt Q92753); assay: Binding affinity to recombinant human RORbeta LBD (201 to 452 residues) expressed in Escherichia coli BL21 (DE3) GOLD by 1,8-ANS dye-based thermofluor assay
# T1 sequence (Q92753 whole entry): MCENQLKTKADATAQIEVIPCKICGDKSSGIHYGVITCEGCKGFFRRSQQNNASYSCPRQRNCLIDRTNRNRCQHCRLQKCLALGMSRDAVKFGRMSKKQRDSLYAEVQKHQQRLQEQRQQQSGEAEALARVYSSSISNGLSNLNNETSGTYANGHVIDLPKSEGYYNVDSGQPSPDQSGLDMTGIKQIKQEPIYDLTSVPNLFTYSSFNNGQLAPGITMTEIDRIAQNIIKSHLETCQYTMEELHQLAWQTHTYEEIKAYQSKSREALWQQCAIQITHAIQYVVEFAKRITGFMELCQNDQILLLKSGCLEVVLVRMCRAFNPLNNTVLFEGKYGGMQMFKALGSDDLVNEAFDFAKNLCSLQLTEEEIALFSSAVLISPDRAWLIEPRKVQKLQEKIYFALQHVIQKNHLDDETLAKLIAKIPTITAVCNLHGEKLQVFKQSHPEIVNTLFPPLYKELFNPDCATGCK
# [2] = molecular target: T2, PXR (NR1I2) (Homo sapiens, UniProt O75469); assay: […] at PXR LBD (unknown origin) expressed in HEK293 cells […] at 1 uM after 16 hrs by luciferase reporter gene assay relative to rifampicin; assay type: ADME, cell-based; conditions: HEK293 cells expressing PXR LBD, read-out: Efficacy
# T2 sequence (O75469 whole entry): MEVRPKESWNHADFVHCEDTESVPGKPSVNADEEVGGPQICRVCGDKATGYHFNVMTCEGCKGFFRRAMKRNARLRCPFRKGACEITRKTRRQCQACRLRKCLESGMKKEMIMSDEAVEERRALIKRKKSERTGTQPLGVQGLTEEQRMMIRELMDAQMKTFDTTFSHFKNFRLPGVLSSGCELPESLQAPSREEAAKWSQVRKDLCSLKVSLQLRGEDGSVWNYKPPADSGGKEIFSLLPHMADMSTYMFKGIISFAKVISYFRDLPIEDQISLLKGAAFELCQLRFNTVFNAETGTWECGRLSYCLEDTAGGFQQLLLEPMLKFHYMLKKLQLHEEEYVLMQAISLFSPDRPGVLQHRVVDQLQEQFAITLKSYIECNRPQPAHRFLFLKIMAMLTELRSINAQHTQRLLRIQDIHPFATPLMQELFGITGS
# [3] = molecular target: T2, PXR (NR1I2); assay: […] at PXR LBD (unknown origin) expressed in HEK293 cells […] at 5 uM after 16 hrs by luciferase reporter gene assay relative to rifampicin; assay type: ADME, cell-based; conditions: HEK293 cells expressing PXR LBD, read-out: Efficacy
# [4] = molecular target: Cytochrome P450 2C19 (Homo sapiens, UniProt P33261); assay: Inhibition of CYP2C19 (unknown origin); assay type: ADME
# [5] = molecular target: T3, Cytochrome P450 1A2 (Homo sapiens, UniProt P05177); assay: Inhibition of CYP1A2 (unknown origin); assay type: ADME
# T3 sequence (P05177 whole entry): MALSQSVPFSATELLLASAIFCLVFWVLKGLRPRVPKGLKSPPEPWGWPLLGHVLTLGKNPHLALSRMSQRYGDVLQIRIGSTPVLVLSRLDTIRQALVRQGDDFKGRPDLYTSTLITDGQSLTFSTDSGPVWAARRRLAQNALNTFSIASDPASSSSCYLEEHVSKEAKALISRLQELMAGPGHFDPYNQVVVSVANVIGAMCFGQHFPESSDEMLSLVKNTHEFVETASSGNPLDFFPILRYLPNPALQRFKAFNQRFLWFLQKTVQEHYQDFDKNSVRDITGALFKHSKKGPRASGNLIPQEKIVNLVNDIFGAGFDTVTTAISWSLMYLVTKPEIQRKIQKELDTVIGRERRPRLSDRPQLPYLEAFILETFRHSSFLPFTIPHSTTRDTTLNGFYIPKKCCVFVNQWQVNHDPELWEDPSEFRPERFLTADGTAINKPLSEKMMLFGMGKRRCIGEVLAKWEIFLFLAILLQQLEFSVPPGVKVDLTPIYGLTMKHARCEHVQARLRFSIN
# [6] = molecular target: Cytochrome P450 2D6 (Homo sapiens, UniProt P10635); assay: Inhibition of CYP2D6 (unknown origin); assay type: ADME
# [7] = molecular target: T2, PXR (NR1I2); assay: […] at PXR LBD (unknown origin) expressed in HEK293 cells […] at 10 uM after 16 hrs by luciferase reporter gene assay relative to rifampicin; assay type: ADME, cell-based; conditions: HEK293 cells expressing PXR LBD, read-out: Efficacy
# [8] = Half life in rat microsomes; assay type: ADME, Microsome
# [9] = Half life in human microsomes; assay type: ADME, Microsome
# [10] = Thermodynamic solubility of the compound in 30 mM phosphate buffer at 10 mM at pH 7 after 2 to 5 days by UV-HPLC analysis; assay type: physicochemical; conditions: read-out: Therm_solubility
# [11] = Thermodynamic solubility of the compound in fasted state simulated intestinal […] after 2 to 5 days by UV-HPLC analysis; assay type: physicochemical; conditions: read-out: Therm_solubility
# [12] = molecular target: T4, Cytochrome P450 2C8 (Homo sapiens, UniProt P10632); assay: Inhibition of CYP2C8 (unknown origin); assay type: ADME
# T4 sequence (P10632 whole entry): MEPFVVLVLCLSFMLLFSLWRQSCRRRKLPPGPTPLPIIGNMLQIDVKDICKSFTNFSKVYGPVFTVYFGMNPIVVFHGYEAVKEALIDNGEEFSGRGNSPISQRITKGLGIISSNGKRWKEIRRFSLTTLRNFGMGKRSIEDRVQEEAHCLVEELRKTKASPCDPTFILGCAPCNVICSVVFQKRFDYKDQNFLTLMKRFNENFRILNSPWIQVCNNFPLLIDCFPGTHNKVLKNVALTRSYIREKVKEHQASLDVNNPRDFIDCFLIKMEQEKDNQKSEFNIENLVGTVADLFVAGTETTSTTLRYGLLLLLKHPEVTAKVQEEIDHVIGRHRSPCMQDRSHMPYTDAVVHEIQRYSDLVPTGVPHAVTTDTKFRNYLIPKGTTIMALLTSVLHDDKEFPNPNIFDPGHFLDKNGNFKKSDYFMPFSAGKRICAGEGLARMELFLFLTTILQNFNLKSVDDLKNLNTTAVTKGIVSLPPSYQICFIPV
# [13] = molecular target: Cytochrome P450 3A4 (Homo sapiens, UniProt P08684); assay: Inhibition of CYP3A4 (unknown origin); assay type: ADME
# [14] = molecular target: Cytochrome P450 2C9 (Homo sapiens, UniProt P11712); assay: Inhibition of CYP2C9 (unknown origin); assay type: ADME
# [15] = Clearance in Sprague-Dawley rat at 1 mg/kg, iv; assay type: ADME, organism-based; conditions: in vivo
# [16] = Terminal half life in Sprague-Dawley rat at 5 mg/kg, po; assay type: ADME, organism-based; conditions: in vivo, read-out: beta t1/2 (converted)
# [17] = Half life in Sprague-Dawley rat at 1 mg/kg, iv; assay type: ADME, organism-based; conditions: in vivo
# [18] = Volume of distribution at steady state in Sprague-Dawley rat at 1 mg/kg, iv; assay type: ADME, organism-based; conditions: in vivo, read-out: Vdss
# [19] = AUC (0 to infinity) in Sprague-Dawley rat at 1 mg/kg, iv; assay type: ADME, organism-based; set-up: dose 1 mg/kg, time infinity, route intravenous; conditions: in vivo
# [20] = Tmax in Sprague-Dawley rat at 5 mg/kg, po; assay type: ADME, organism-based; conditions: in vivo
# [21] = AUC (0 to infinity) in Sprague-Dawley rat at 5 mg/kg, po; assay type: ADME, organism-based; set-up: dose 5 mg/kg, route oral, time infinity; conditions: in vivo
# [22] = Initial plasma concentration in Sprague-Dawley rat at 1 mg/kg, iv; assay type: ADME, organism-based
# [23] = Oral bioavailability in Sprague-Dawley rat at 5 mg/kg; assay type: ADME, organism-based; conditions: in vivo
# [24] = Cmax in Sprague-Dawley rat at 5 mg/kg, po; assay type: ADME, organism-based; set-up: dose 5 mg/kg, route oral; conditions: in vivo
# Chain of Cytochrome P450 2C9 (P11712 whole entry): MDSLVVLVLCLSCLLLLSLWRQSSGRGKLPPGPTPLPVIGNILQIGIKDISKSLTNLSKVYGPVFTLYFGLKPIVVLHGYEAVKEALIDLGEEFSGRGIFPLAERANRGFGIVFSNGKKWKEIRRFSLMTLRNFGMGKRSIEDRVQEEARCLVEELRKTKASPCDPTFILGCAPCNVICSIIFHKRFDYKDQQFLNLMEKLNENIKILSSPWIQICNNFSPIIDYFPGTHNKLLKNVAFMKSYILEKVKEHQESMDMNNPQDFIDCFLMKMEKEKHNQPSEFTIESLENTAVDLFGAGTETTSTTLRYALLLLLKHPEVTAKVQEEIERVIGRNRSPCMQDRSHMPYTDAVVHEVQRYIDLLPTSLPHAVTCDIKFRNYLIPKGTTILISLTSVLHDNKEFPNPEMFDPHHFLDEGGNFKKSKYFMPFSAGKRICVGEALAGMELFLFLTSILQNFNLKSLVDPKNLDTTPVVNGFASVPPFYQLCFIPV
# Chain of Cytochrome P450 3A4 (P08684 whole entry): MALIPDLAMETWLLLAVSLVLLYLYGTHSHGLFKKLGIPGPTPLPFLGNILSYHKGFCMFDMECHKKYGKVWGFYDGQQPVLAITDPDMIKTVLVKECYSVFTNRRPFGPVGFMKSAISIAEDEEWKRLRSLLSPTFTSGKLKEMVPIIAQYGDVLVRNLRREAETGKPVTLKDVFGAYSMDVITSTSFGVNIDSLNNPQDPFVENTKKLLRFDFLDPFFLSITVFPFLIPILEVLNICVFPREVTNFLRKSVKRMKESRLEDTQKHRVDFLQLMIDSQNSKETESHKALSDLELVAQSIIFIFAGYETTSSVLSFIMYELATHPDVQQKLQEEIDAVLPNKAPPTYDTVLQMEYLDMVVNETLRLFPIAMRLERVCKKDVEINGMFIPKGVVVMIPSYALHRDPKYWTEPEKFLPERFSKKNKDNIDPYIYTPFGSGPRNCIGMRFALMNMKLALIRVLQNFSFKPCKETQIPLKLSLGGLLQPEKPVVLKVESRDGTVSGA
# Chain of Cytochrome P450 2C19 (P33261 whole entry): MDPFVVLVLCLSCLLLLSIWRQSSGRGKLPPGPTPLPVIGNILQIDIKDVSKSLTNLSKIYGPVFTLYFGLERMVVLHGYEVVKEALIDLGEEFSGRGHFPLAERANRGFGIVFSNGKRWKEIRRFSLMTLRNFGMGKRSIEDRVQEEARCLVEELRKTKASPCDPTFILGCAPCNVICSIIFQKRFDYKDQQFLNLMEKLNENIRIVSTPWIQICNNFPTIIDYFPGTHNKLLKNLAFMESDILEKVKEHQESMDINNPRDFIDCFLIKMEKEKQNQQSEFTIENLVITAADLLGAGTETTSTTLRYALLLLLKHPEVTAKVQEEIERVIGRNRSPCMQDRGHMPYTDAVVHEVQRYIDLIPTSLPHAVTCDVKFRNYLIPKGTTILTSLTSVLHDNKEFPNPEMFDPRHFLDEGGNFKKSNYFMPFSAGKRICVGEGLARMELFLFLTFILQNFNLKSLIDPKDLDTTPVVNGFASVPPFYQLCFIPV
# Chain of Cytochrome P450 2D6 (P10635 whole entry, the tested form may be a part): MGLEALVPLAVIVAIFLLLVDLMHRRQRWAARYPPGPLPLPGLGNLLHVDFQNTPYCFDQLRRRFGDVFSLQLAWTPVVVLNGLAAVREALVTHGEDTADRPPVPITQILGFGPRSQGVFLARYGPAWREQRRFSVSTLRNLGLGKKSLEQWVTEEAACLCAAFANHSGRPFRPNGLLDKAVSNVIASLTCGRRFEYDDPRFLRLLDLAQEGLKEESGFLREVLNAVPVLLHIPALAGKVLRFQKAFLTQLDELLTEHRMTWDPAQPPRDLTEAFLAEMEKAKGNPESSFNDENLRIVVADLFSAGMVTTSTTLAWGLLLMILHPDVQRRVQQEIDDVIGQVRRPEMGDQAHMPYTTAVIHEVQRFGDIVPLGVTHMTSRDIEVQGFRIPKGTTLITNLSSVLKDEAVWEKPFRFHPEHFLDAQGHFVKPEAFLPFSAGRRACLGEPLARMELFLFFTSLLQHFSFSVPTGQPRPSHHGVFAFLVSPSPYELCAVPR
Kd [1],"Emax at 16 h, 1 µM [2]","Emax at 16 h, 5 µM [3]",INH [4],INH [5],INH [6],half-life [8],half-life [9],solubility thermodynamic at 10000 µM [10],INH [12],INH [13],INH [14],clearance [15],half-life [16],half-life [17],Vd [18],AUC(0-inf) [19],Tmax [20],AUC(0-inf) [21],C0 [22],SMILES,other results
> 76 µM,60%,68%,,,,,,,,,,,,,,,,,,C[C@H](NS(=O)(=O)c1ccc(-c2sc(C(=O)NCC(C)(C)O)nc2C2CCCCC2)c(Cl)c1Cl)C(F)(F)F,
,86%,,> 10 µM,> 10 µM,> 10 µM,0.433 h,0.617 h,< 1 µM,4 µM,> 10 µM,8.7 µM,,,,,,,,,Cc1c(S(=O)(=O)NC(C)(C)C)ccc(-c2sc(C(=O)N[C@H]3C[C@H](C(=O)O)C3)nc2CC2CCCCC2)c1OC(F)F,"Emax at 16 h, 10 µM [7]: 173%; solubility thermodynamic [11]: 50 µM"
,,,> 10 µM,> 10 µM,> 10 µM,2.33 h,> 3 h,< 4 µM,3.4 µM,> 10 µM,> 10 µM,,,,,,,,,CC(C)(C)NS(=O)(=O)c1ccc(-c2sc(C(=O)N[C@H]3C[C@H](C(=O)O)C3)nc2CC2CCCCC2)c(C(F)(F)F)c1,solubility thermodynamic [11]: > 400 µM
> 78 µM,69%,122%,,,,,,,,,,,,,,,,,,C[C@H](NS(=O)(=O)c1ccc(-c2sc(C(=O)NCC(C)(C)O)nc2-c2cccc(F)c2)c(Cl)c1Cl)C(F)(F)F,
> 72 µM,74%,144%,3 µM,> 10 µM,5.4 µM,0.95 h,> 3 h,< 4 µM,> 10 µM,> 10 µM,2.7 µM,46.7 mL/min/kg,3.2 h,1.9 h,5.4 L/kg,198 ng·h/mL,1.7 h,321 ng·h/mL,310 ng/mL,C[C@H](NS(=O)(=O)c1ccc(-c2sc(C(=O)NCC(C)(C)O)nc2CC2CCC2)c(C(F)F)c1)C(F)(F)F,bioavailability [23]: 32.5%; Cmax [24]: 57 ng/mL
> 75 µM,101%,,> 10 µM,> 10 µM,> 10 µM,1.22 h,1.68 h,6.6 µM,3.5 µM,> 10 µM,> 10 µM,107 mL/min/kg,2.1 h,0.5 h,2.3 L/kg,162 ng·h/mL,0.8 h,328 ng·h/mL,2300 ng/mL,CC(C)(C)NS(=O)(=O)c1ccc(-c2sc(C(=O)N[C@H]3C[C@H](C(=O)O)C3)nc2CC2CCCCC2)c(Cl)c1,"Emax at 16 h, 10 µM [7]: 178%; bioavailability [23]: 20%; Cmax [24]: 130 ng/mL"
> 69 µM,99%,131%,> 10 µM,> 10 µM,> 10 µM,2.35 h,1.67 h,< 4 µM,> 10 µM,> 10 µM,2.9 µM,21.6 mL/min/kg,2.6 h,3.8 h,3.4 L/kg,792 ng·h/mL,1.7 h,1700 ng·h/mL,470 ng/mL,C[C@H](NS(=O)(=O)c1ccc(-c2sc(C(=O)NC3CCS(=O)(=O)CC3)nc2CC2CC2)c2ccccc12)C(F)(F)F,bioavailability [23]: 42.5%; Cmax [24]: 276 ng/mL
> 85 µM,,,,,,,,,,,,,,,,,,,,CC(C)(C)NS(=O)(=O)c1ccc(-c2sc(C(=O)N3CC4(C3)CS(=O)(=O)C4)nc2CC2CCCCC2)c2ccccc12,
,122%,188%,2 µM,> 10 µM,> 10 µM,0.9 h,> 3 h,< 4 µM,3.3 µM,> 10 µM,0.4 µM,40.7 mL/min/kg,6.9 h,10.2 h,29.5 L/kg,415 ng·h/mL,0.8 h,314 ng·h/mL,119 ng/mL,C[C@H](NS(=O)(=O)c1ccc(-c2sc(C(=O)NCC(C)(C)O)nc2CC2CC2)c2ccccc12)C(F)(F)F,bioavailability [23]: 14.8%; Cmax [24]: 55 ng/mL
,66%,113%,> 10 µM,> 10 µM,> 10 µM,1.42 h,1.88 h,11 µM,6.2 µM,> 10 µM,7.6 µM,,,,,,,,,CC(C)NS(=O)(=O)c1ccc(-c2sc(C(=O)N[C@H]3C[C@H](C(=O)O)C3)nc2CC2CCCCC2)c(C(F)F)c1Cl,solubility thermodynamic [11]: > 400 µM
